Test results taken from patent US8501732B2, “Aminomethyl quinolone compounds” (Hoffmann-La Roche Inc., priority 2011, dated 2013).
Structures can show the parent of a compound that is named as a salt.

These compounds were tested against JNK1 (Homo sapiens (Human), UniProt P45983) (assay: In Vitro JNK1 Assay (TR-FRET, phosphorylation of GST-c-Jun)). Details: 0.2 nM active JNK1 kinase, 26.7 nM GST-c-Jun, 2 μM ATP, 30 min at room temperature.
Format: biochemical
Method: Phosphorylation of GST-c-Jun protein (amino acid residues 1-79) was measured as JNK1 activity. […] The reaction buffer contained 50 mM HEPES, pH […], 1 mM DTT, 0.1 mM Na3VO4 and 0.2 mg/mL BSA. After 30 min. incubation at room temperature, the reaction was terminated by adding buffer containing 8 mM EDTA and a polyclonal anti-phospho-c-Jun antibody (Cell Signaling #9261L), followed by an additional incubation of 30 min. at room temperature. […] Time-resolved Fluorescence Resonance Energy Transfer (TR-FRET) signals were measured 1 hr. later on the EnVision reader (Perkin Elmer). Compound potency was assessed at 10 serially diluted concentrations. Percentage of inhibition at each concentration was determined to generate an IC50 value for each compound.

JNK1, sequence (P45983 whole entry): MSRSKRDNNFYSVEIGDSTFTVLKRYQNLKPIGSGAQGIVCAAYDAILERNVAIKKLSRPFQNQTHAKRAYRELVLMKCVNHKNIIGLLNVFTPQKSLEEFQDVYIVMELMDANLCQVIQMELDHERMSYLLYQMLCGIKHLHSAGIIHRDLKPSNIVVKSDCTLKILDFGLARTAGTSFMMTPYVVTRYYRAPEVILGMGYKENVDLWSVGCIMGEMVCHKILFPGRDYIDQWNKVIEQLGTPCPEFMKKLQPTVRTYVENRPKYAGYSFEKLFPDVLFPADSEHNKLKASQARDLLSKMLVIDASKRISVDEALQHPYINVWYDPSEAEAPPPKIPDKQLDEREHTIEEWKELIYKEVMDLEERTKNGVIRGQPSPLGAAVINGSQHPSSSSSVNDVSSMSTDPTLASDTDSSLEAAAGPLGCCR

Row | Compound | IC50
1 | 1-(4-Chloro-3-fluoro-phenyl)-3-(7-chloro-4-oxo-1-phenyl-1,4-dihydro-quinolin-3-yl-methyl)-urea [Example I-204] | 1100 nM
2 | COC(=O)c1ccc(C(=O)NCc2c(-c3ncco3)n(-c3ccccc3)c3cc(Cl)ccc3c2=O)cn1 [Example I-5, 5-[(7-Chloro-2-oxazol-2-yl-4-oxo-1-phenyl-1,4-dihydro-quinolin-3-ylmethyl)-carbamoyl]-pyridine-2-carboxylic acid methyl ester] | 25 nM
3 | O=C(NCc1c(-c2ncco2)n(-c2ccccc2)c2cc(Cl)ccc2c1=O)c1ccc(Cl)nc1 [Example I-6, 6-Chloro-N-(7-chloro-2-oxazol-2-yl-4-oxo-1-phenyl-1,4-dihydro-quinolin-3-ylmethyl)-nicotinamide] | 29 nM
4 | CN(C)C(=O)c1c(CNC(=O)c2ccc(N3CCOCC3)cc2)c(=O)c2ccc(Cl)cc2n1-c1ccccc1 [Example I-17, 7-Chloro-3-[(4-morpholin-4-yl-benzoylamino)-methyl]-4-oxo-1-phenyl-1,4-dihydro-quinoline-2-carboxylic acid dimethylamide] | 140 nM
5 | CN(C)C(=O)c1c(CNC(=O)c2ccc(-c3cnco3)cc2)c(=O)c2ccc(Cl)cc2n1-c1ccccc1 [Example I-18, 7-Chloro-3-[(4-oxazol-5-yl-benzoylamino)-methyl]-4-oxo-1-phenyl-1,4-dihydro-quinoline-2-carboxylic acid dimethylamide] | 150 nM
6 | CN(C)C(=O)c1c(CNC(=O)c2ccc(F)cc2)c(=O)c2ccc(Cl)cc2n1-c1ccccc1 [Example I-20, 7-Chloro-3-[(4-fluoro-benzoylamino)-methyl]-4-oxo-1-phenyl-1,4-di-hydro-quinoline-2-carboxylic acid dimethylamide] | 240 nM
7 | COc1ccccc1Cn1ccc(C(=O)NCc2cn(-c3ccccc3)c3cc(Cl)ccc3c2=O)cc1=O [Example I-48, 1-(2-Methoxy-benzyl)-2-oxo-1,2-dihydro-pyridine-4-carboxylic acid (7-chloro-4-oxo-1-phenyl-1,4-dihydro-quinolin-3-ylmethyl)-amide] | 180 nM
8 | O=C(NCc1cn(-c2ccccc2)c2cc(Cl)ccc2c1=O)c1cnc(N2CCOCC2)nc1 [Example I-56, 2-Morpholin-4-yl-pyrimidine-5-carboxylic acid (7-chloro-4-oxo-1-phenyl-1,4-dihydro-quinolin-3-ylmethyl)-amide] | 190 nM
9 | O=C(NCc1cn(-c2ccccc2)c2cc(Cl)ccc2c1=O)c1cc(F)ccc1F [Example I-60, N-(7-Chloro-4-oxo-1-phenyl-1,4-dihydro-quinolin-3-ylmethyl)-2,5-difluoro-benzamide] | 1900 nM
10 | NC(=O)C1CCN(c2ccc(C(=O)NCc3cn(-c4ccccc4)c4cc(Cl)ccc4c3=O)cn2)CC1 [Example I-86, 3,4,5,6-Tetrahydro-2H-[1,2′]bipyridinyl-4,5′-dicarboxylic acid 4-amide-5′-[(7-chloro-4-oxo-1-phenyl-1,4-dihydro-quinolin-3-ylmethyl)-amide]] | 110 nM
11 | O=C(NCc1cn(-c2ccccc2Cl)c2cc(Cl)ccc2c1=O)c1ccc(Br)nc1 [Example I-101, 6-Bromo-N-[7-chloro-1-(2-chloro-phenyl)-4-oxo-1,4-dihydro-quinolin-3-ylmethyl]-nicotinamide] | 600 nM
12 | O=C(NCc1cn(-c2ccccc2Cl)c2cc(Cl)ccc2c1=O)c1ccc(-c2cn[nH]c2)nc1 [Example I-102, N-[7-Chloro-1-(2-chloro-phenyl)-4-oxo-1,4-dihydro-quinolin-3-ylmethyl]-6-(1H-pyrazol-4-yl)-nicotinamide] | 740 nM
13 | O=C(NCc1cn(-c2ccccc2F)c2cc(F)ccc2c1=O)c1ccc(Cl)nc1 [Example I-105, 6-Chloro-N-[7-fluoro-1-(2-fluoro-phenyl)-4-oxo-1,4-dihydro-quinolin-3-yl-methyl]-nicotinamide] | 150 nM

Now from value to compound:

Row | IC50 | Compound
14 | 460 nM | CN(C)C(=O)c1c(CNC(=O)c2ccc3c(c2)OCCO3)c(=O)c2ccc(Cl)cc2n1-c1ccccc1 [Example I-21, 7-Chloro-3-{[(2,3-dihydro-benzo[1,4]dioxine-6-carbonyl)-amino]-methyl}-4-oxo-1-phenyl-1,4-dihydro-quinoline-2-carboxylic acid dimethylamide]
15 | 110 nM | O=C(NCc1cn(-c2ccccc2)c2cc(Cl)ccc2c1=O)c1ccn(Cc2cccc(Cl)c2)c(=O)c1 [Example I-44, 1-(3-Chloro-benzyl)-2-oxo-1,2-dihydro-pyridine-4-carboxylic acid (7-chloro-4-oxo-1-phenyl-1,4-dihydro-quinolin-3-ylmethyl)-amide]
16 | 110 nM | Cn1cnc2cc(C(=O)NCc3cn(-c4ccccc4)c4cc(Cl)ccc4c3=O)cnc21 [Example I-45, 3-Methyl-3H-imidazo[4,5-b]pyridine-6-carboxylic acid (7-chloro-4-oxo-1-phenyl-1,4-dihydro-quinolin-3-ylmethyl)-amide]
17 | 140 nM | O=C(NCc1cn(-c2ccccc2)c2cc(Cl)ccc2c1=O)c1ccc2cc[nH]c2c1 [Example I-46, 1H-Indole-6-carboxylic acid (7-chloro-4-oxo-1-phenyl-1,4-dihydro-quinolin-3-ylmethyl)-amide]
18 | 170 nM | O=C(NCc1cn(-c2ccccc2)c2cc(Cl)ccc2c1=O)c1ccc(-c2cnco2)cc1 [Example I-47, N-(7-Chloro-4-oxo-1-phenyl-1,4-dihydro-quinolin-3-ylmethyl)-4-oxazol-5-yl-benzamide]
19 | 230 nM | O=C(NCc1cn(-c2ccccc2)c2cc(Cl)ccc2c1=O)c1cnc2nc[nH]c2c1 [Example I-49, 1H-Imidazo[4,5-b]pyridine-6-carboxylic acid (7-chloro-4-oxo-1-phenyl-1,4-dihydro-quinolin-3-ylmethyl)-amide]
20 | 300 nM | NC(=O)c1ccc(C(=O)NCc2cn(-c3ccccc3)c3cc(Cl)ccc3c2=O)cc1 [Example I-50, N-(7-Chloro-4-oxo-1-phenyl-1,4-dihydro-quinolin-3-ylmethyl)-terephthal-amide]
21 | 330 nM | CC(C)(C)OC(=O)N1CCC(C(=O)NCc2cn(-c3ccccc3)c3cc(Cl)ccc3c2=O)C1 (centres unmarked) [Example I-51, 3-[(7-Chloro-4-oxo-1-phenyl-1,4-dihydro-quinolin-3-ylmethyl)-carbamoyl]-pyrrolidine-1-carboxylic acid tert-butyl ester]
22 | 380 nM | O=C(NCc1cn(-c2ccccc2)c2cc(Cl)ccc2c1=O)c1ccc(=O)n(Cc2ccccc2)c1 [Example I-52, 1-Benzyl-6-oxo-1,6-dihydro-pyridine-3-carboxylic acid (7-chloro-4-oxo-1-phenyl-1,4-dihydro-quinolin-3-ylmethyl)-amide]
23 | 560 nM | Cn1cc(C(=O)NCc2cn(-c3ccccc3)c3cc(Cl)ccc3c2=O)nn1 [Example I-53, 1-Methyl-1H-[1,2,3]triazole-4-carboxylic acid (7-chloro-4-oxo-1-phenyl-1,4-dihydro-quinolin-3-ylmethyl)-amide]
24 | 670 nM | Cn1ccc(C(=O)NCc2cn(-c3ccccc3)c3cc(Cl)ccc3c2=O)cc1=O [Example I-54, 1-Methyl-2-oxo-1,2-dihydro-pyridine-4-carboxylic acid (7-chloro-4-oxo-1-phenyl-1,4-dihydro-quinolin-3-ylmethyl)-amide]
25 | 700 nM | O=C(NCc1cn(-c2ccccc2)c2cc(Cl)ccc2c1=O)c1cn(Cc2ccccc2)nn1 [Example I-55, 1-Benzyl-1H-[1,2,3]triazole-4-carboxylic acid (7-chloro-4-oxo-1-phenyl-1,4-dihydro-quinolin-3-ylmethyl)-amide]
26 | 630 nM | O=C(NCc1cn(-c2ccccc2)c2cc(Cl)ccc2c1=O)c1cc(F)cc(F)c1 [Example I-58, N-(7-Chloro-4-oxo-1-phenyl-1,4-dihydro-quinolin-3-ylmethyl)-3,5-difluoro-benzamide]
27 | 1700 nM | O=C(NCc1cn(-c2ccccc2)c2cc(Cl)ccc2c1=O)c1cccc(F)c1F [Example I-59, N-(7-Chloro-4-oxo-1-phenyl-1,4-dihydro-quinolin-3-ylmethyl)-2,3-difluoro-benzamide]
28 | 430 nM | O=C(NCc1cn(-c2ccccc2)c2cc(Cl)ccc2c1=O)c1ccc(Cl)nc1 [Example I-61, 6-Chloro-N-(7-chloro-4-oxo-1-phenyl-1,4-dihydro-quinolin-3-ylmethyl)-nicotinamide]
29 | 120 nM | O=C(NCc1cn(-c2ccccc2)c2cc(Cl)ccc2c1=O)c1ccc(N2CC[C@H](O)C2)nc1 [Example I-87, N-(7-Chloro-4-oxo-1-phenyl-1,4-dihydro-quinolin-3-ylmethyl)-6-((S)-3-hydroxy-pyrrolidin-1-yl)-nicotinamide]
30 | 250 nM | CN1CCN(c2ccc(C(=O)NCc3cn(-c4ccccc4)c4cc(Cl)ccc4c3=O)cn2)CC1 [Example I-88, N-(7-Chloro-4-oxo-1-phenyl-1,4-dihydro-quinolin-3-ylmethyl)-6-(4-methyl-piperazin-1-yl)-nicotinamide]
31 | 130 nM | NC1CCN(c2ccc(C(=O)NCc3cn(-c4ccccc4)c4cc(Cl)ccc4c3=O)cn2)CC1 [Example I-90, 4-Amino-3,4,5,6-tetrahydro-2H-[1,2′]bipyridinyl-5′-carboxylic acid (7-chloro-4-oxo-1-phenyl-1,4-dihydro-quinolin-3-ylmethyl)-amide trifluoroacetate]
32 | 100 nM | O=C(NCc1cn(-c2ccccc2F)c2cc(F)ccc2c1=O)c1ccc(N2CCS(=O)(=O)CC2)nc1 [Example I-107, 6-(1,1-Dioxo-1-thiomorpholin-4-yl)-N-[7-fluoro-1-(2-fluoro-phenyl)-4-oxo-1,4-dihydro-quinolin-3-ylmethyl]-nicotinamide]
